Molecular target: Mitogen-activated protein kinase 1 (Homo sapiens, UniProt P28482)
Assay: Photometric_Method2

Sequence of Mitogen-activated protein kinase 1 (P28482 whole entry): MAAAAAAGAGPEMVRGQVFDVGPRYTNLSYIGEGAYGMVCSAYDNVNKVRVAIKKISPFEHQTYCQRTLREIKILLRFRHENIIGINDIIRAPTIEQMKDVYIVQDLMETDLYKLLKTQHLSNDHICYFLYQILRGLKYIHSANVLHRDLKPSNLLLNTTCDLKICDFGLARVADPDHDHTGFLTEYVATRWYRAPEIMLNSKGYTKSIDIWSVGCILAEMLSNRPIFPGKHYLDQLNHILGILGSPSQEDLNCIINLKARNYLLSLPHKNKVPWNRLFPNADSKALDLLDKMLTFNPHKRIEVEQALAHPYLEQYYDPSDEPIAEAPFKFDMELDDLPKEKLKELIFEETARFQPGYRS

Ki	SMILES
7.1 nM	Cc1cnc(NN2CCCC2)nc1-c1c[nH]c(C(=O)N[C@H](CO)c2cccc(Cl)c2)c1 [erk000624]
7.1 nM	Cc1ccc(Nc2ncc(C)c(-c3c[nH]c(C(=O)N[C@H](CO)c4cccc(Cl)c4)c3)n2)cc1 [erk000585]
7.9 nM	Cc1cnc(NC2CCOCC2)nc1-c1c[nH]c(C(=O)N[C@H](CO)c2cccc(Cl)c2)c1 [erk000584]
7.9 nM	Cc1cnc(N[C@@H](CO)CC(F)(F)F)nc1-c1c[nH]c(C(=O)N[C@H](CO)c2cccc(Cl)c2)c1 [erk000675]
7.1 nM	Cc1cnc(N[C@H]2CCC[C@H]2O)nc1-c1c[nH]c(C(=O)N[C@H](CO)c2cccc(Cl)c2)c1 [erk000612]
7.1 nM	Cc1cnc(NN(C)C)nc1-c1c[nH]c(C(=O)N[C@H](CO)c2ccccc2)c1 [erk000505]
7.9 nM	Cc1cnc(Nc2ccc(Cl)cc2Cl)nc1-c1c[nH]c(C(=O)N[C@H](CO)c2ccccc2)c1 [erk000657]

The remaining lines, values behind:

SMILES	Ki
CCOC(=O)N1CCC(Nc2ncc(Cl)c(-c3c[nH]c(C(=O)N[C@H](CO)c4cccc(Cl)c4)c3)n2)CC1 [erk000703]	7.1 nM
Cc1cnc(NCCc2ccccc2)nc1-c1c[nH]c(C(=O)N[C@H](CO)c2ccccc2)c1 [erk000578]	7.1 nM
Cc1cnc(Nc2cccc3c2OC(F)(F)O3)nc1-c1c[nH]c(C(=O)N[C@H](CO)c2ccccc2)c1 [erk000591]	7.9 nM
Cc1cnc(N[C@H]2CCCC[C@H]2O)nc1-c1c[nH]c(C(=O)N[C@H](CO)c2ccccc2)c1 [erk000465]	7.1 nM
Cc1cccc([C@@H](CO)NC(=O)c2cc(-c3nc(Nc4cccc(F)c4C)ncc3C)c[nH]2)c1 [erk000601]	7.9 nM

Source: BindingDB's records for doi:10.7270/Q2S46QSD (D3R/Abbott, 2015)
